Data taken from ChEMBL document CHEMBL4392852, “Synthesis and characterization of hydrogen peroxide activated estrogen receptor beta ligands” (Bioorg Med Chem, 2019).

How the values were obtained:
[1] = target: T1, Estrogen receptor (Homo sapiens) (UniProt P03372); assay: Ratio of RBA for Estrone to RBA for test compound for displacement of fluormone tracer from full length human recombinant ERalpha relative to estradiol
T1 sequence (whole entry): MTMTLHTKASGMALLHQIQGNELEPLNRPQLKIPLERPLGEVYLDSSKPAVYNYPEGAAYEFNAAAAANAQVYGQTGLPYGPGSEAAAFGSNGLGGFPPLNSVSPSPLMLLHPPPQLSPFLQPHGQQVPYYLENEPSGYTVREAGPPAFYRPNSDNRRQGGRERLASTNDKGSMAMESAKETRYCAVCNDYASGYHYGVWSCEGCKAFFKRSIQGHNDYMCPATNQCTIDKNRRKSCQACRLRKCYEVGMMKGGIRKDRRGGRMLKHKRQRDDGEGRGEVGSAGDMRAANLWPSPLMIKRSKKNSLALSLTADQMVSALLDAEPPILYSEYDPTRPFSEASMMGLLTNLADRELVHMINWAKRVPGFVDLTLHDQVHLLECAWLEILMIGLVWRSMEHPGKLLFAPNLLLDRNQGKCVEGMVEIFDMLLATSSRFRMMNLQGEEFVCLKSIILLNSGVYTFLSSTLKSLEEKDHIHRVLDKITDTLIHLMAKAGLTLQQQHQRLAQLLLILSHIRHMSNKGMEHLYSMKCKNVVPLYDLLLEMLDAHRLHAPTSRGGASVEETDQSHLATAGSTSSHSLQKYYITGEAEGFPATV

[2] = Drug metabolism in pH 7.4 PBS in absence of H2O2 at 75 uM incubated at 37 degC for 4 hrs by UV spectroscopy
[3] = Drug metabolism in pH 7.4 PBS assessed as H2O2-mediated conversion to E1 by measuring second order rate constant incubated at 75 uM at 37 degC for 4 hrs by UV spectroscopy
Estrogen receptor beta [4] = target: T2, Estrogen receptor beta (Homo sapiens, UniProt Q92731); assay: Ratio of RBA for Estrone to RBA for test compound for displacement of fluormone tracer from full length human recombinant ERbeta relative to estradiol
[5] = target: T1, Estrogen receptor (Homo sapiens); assay: Ratio of RBA for estradiol RBA for test compound for displacement of fluormone tracer from full length human recombinant ERalpha relative to estradiol
[6] = Drug metabolism in pH 7.4 PBS assessed as H2O2-mediated conversion to E2 by measuring retention time of product at 500 uM incubated at 37 degC for 30 mins by GC-MS analysis; assay type: physicochemical; conditions: buffer, pH 7.4, 0.5 h
[7] = Drug metabolism in pH 7.4 PBS assessed as H2O2-mediated conversion to phenol by measuring second order rate constant for disappearance of starting material at 75 uM incubated at 37 degC for 4 hrs by UV spectroscopy
[8] = Drug metabolism in pH 7.4 PBS assessed as H2O2-mediated conversion to E2 incubated at 500 uM at 37 degC for 30 mins by GC-MS analysis
Estrogen receptor beta [9] = target: T2, Estrogen receptor beta; assay: Ratio of RBA for estradiol RBA for test compound for displacement of fluormone tracer from full length human recombinant ERbeta relative to estradiol
[10] = Retention time of the compound at 150 uM by HPLC analysis; assay type: physicochemical
[11] = Drug metabolism in pH 7.4 PBS assessed as second order rate constant for H2O2-mediated formation of DPN at 75 uM at 37 degC incubated for over 4 hrs by UV spectroscopy
Estrogen receptor beta [12] = target: T2, Estrogen receptor beta; assay: Ratio of RBA for DPN to RBA for test compound for displacement of fluormone tracer from full length human recombinant ERbeta relative to estradiol
[13] = Drug metabolism in pH 7.4 PBS assessed as formation of DPN at 150 uM at 37 degC incubated for 1 hr in presence of 5 fold excess TBHP by HPLC analysis
Estrogen receptor beta [14] = target: T2, Estrogen receptor beta; assay: Activation of human ERbeta assessed as induction of transcriptional activation incubated for 24 hrs in presence of 100 uM H2O2 by luciferase reporter gene assay
[15] = Drug metabolism in pH 7.4 PBS assessed as H2O2-mediated formation of DPN at 75 uM at 37 degC incubated for 10 mins by UV spectroscopy
[16] = Drug metabolism in pH 7.4 PBS assessed as formation of DPN at 150 uM at 37 degC incubated for 1 hr in presence of 5 fold excess superoxide by HPLC analysis relative to untreated control
[17] = Drug metabolism in pH 7.4 PBS assessed as formation of DPN at 150 uM at 37 degC incubated for 1 hr in presence of 5 fold excess hydroxyl radical by HPLC analysis
Estrogen receptor beta [18] = target: T2, Estrogen receptor beta; assay: Activation of human ERbeta assessed as induction of transcriptional activation incubated for 24 hrs in presence of 50 uM H2O2 by luciferase reporter gene assay
[19] = Drug metabolism in pH 7.4 PBS assessed as formation of DPN at 150 uM at 37 degC incubated for 1 hr in presence of 5 fold excess nitric oxide by HPLC analysis
[20] = Drug metabolism in pH 7.4 PBS assessed as formation of DPN at 150 uM at 37 degC incubated for 1 hr in presence of 5 fold excess hypochlorite by HPLC analysis relative to untreated control
Estrogen receptor beta [21] = target: T2, Estrogen receptor beta; assay: Activation of human ERbeta assessed as induction of transcriptional activation incubated for 24 hrs by luciferase reporter gene assay
[22] = Drug metabolism in pH 7.4 PBS assessed as formation of DPN at 150 uM at 37 degC incubated for 1 hr in presence of 5 fold excess H2O2 by HPLC analysis
[23] = target: T1, Estrogen receptor (Homo sapiens); assay: Ratio of RBA for DPN to RBA for test compound for displacement of fluormone tracer from full length human recombinant ERalpha relative to estradiol

T2 sequence (Q92731 whole entry): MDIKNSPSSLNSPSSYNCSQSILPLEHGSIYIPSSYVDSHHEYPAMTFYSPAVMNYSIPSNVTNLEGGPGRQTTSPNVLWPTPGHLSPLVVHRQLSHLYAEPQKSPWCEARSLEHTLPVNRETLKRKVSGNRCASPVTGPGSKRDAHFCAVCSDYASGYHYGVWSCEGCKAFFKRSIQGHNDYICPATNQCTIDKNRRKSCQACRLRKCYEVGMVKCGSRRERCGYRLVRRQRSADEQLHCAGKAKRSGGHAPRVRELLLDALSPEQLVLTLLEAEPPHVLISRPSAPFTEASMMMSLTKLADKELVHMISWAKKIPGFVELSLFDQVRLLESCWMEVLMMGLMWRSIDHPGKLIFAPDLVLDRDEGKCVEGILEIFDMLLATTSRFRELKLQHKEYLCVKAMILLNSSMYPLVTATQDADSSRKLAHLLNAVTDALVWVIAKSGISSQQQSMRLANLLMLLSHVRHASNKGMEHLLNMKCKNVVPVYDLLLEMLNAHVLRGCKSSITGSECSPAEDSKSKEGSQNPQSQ

| Retention_time [10] | Ratio (Estrogen receptor beta [12]) | Ratio [23] | SMILES | Drug metabolism [2] | K [11] | Drug metabolism [13] | Drug metabolism [15] | Drug metabolism [16] | Drug metabolism [17] | Drug metabolism [19] | Drug metabolism [20] | Drug metabolism [22] | also measured |
| --- | --- | --- | --- | --- | --- | --- | --- | --- | --- | --- | --- | --- | --- |
| – | – | – | CC1(C)OB(c2ccc3c(c2)CC[C@@H]2[C@@H]3CC[C@]3(C)C(=O)CC[C@@H]23)OC1(C)C | Metabolite not detected | – | – | – | – | – | – | – | – | Ratio [1]: 6; K [3]: 4.81 M⁻¹ s⁻¹; Ratio (Estrogen receptor beta [4]): 6 |
| – | – | – | CC1(C)OB(c2ccc3c(c2)CC[C@@H]2[C@@H]3CC[C@]3(C)[C@@H](O)CC[C@@H]23)OC1(C)C | Metabolite not detected | – | – | – | – | – | – | – | – | Ratio [5]: 3; Retention_time [6]: 12.5 min; K [7]: 5.57 M⁻¹ s⁻¹; Drug metabolism [8]: Metabolite detected; Ratio (Estrogen receptor beta [9]): 3 |
| 19 min | – | – | N#CC(Cc1ccc(O)cc1)c1ccc(O)cc1 (centres undefined) [DIARYLPROPIONITRILE] | – | – | – | – | – | – | – | – | – | – |
| 28 min | 20 | – | CC1(C)OB(c2ccc(CC(C#N)c3ccc(B4OC(C)(C)C(C)(C)O4)cc3)cc2)OC1(C)C (centres undefined) | Metabolite not detected | 5.14 M⁻¹ s⁻¹ | Metabolite not detected | Metabolite detected | 22% | Metabolite not detected | Metabolite not detected | 50 to 80% | Metabolite detected | EC50 (Estrogen receptor beta [14]): 1.2 nM; EC50 (Estrogen receptor beta [18]): 6.1 nM; EC50 (Estrogen receptor beta [21]): 470 nM |
| 22 min | 5 | 4.5 | CC1(C)OB(c2ccc(CC(C#N)c3ccc(O)cc3)cc2)OC1(C)C (centres undefined) | Metabolite not detected | 6.46 M⁻¹ s⁻¹ | Metabolite not detected | Metabolite detected | 22% | Metabolite not detected | Metabolite not detected | 50 to 80% | Metabolite detected | – |
| 23 min | 5 | 6 | CC1(C)OB(c2ccc(C(C#N)Cc3ccc(O)cc3)cc2)OC1(C)C (centres undefined) | Metabolite not detected | 5.92 M⁻¹ s⁻¹ | Metabolite not detected | Metabolite detected | 22% | Metabolite not detected | Metabolite not detected | 50 to 80% | Metabolite detected | – |
